# System: SK-N-MC cells
# Assay: MTT cellular proliferation assay, SK-N-MC neuroepithelioma cells
# Format: cell-based, human
# Conditions: IC50 of MRC-5 cells/IC50 of SK-N-MC cells, 72 h/37 °C
# Method: The anti-proliferative activity of Dp4e4mT relative to its complexes with Fe(III), Co(III), Ni(II), Cu(II), Zn(II), Ga(III), and Pd(II) was examined over incubation periods of 24-, 48-, and 72 h/37 °C (Table 2). These studies were performed using human SK-N-MC neuroepithelioma and AsPC-1 pancreatic adenocarcinoma cells that we have previously examined to assay other ligands.[15,28,43] […]
# All cell lines were procured from the American Type Culture Collection (ATCC; Manassas, VA). The SK-N-MC neuroepithelioma cell line and the mortal MRC-5 fibroblasts were cultured in minimum essential medium (Sigma-Aldrich), while the AsPC-1 cell line was cultured in Roswell Park Memorial Institute 1640 medium (Thermo Fisher Scientific, MA, USA). Both media were supplemented with 10% fetal calf serum, non-essential amino acids (1 mM), sodium pyruvate (1 mM), L-glutamine (2 mM), penicillin (100 U/mL), streptomycin (100 U/mL), and Fungizone (0.5 µg/mL). Cells were maintained at 37 °C in an incubator under a humidified atmosphere with 5% CO 2, following established protocols. 11 Cellular Proliferation Assay
# Cellular proliferation was evaluated through the established 3-(4,5-dimethylthiazol-2-yl)-2,5-diphenyltetrazolium bromide (MTT) proliferation assay, validated by viable cell counts.12 […]
# Ligands and complexes were dissolved in DMSO to make a stock solution of 10 mM, subsequently diluted in culture media. For cell culture experiments, the DMSO's maximum concentration remained below 0.5% (v/v), with no discernible impact on proliferation.12 MTT […]
# Trypan blue staining.12 Analysis of the data was executed employing MARS Data Analysis Software (BMG LabTech; version 3.30). The concentration of agents necessary to inhibit cellular proliferation by 50% (IC 50) was then calculated. […]
row,SMILES,Therapeutic index SK-N-MC
1,CCN(C)C([S-])=NN=C(c1ccccn1)c1ccccn1.CCN(C)C([S-])=NN=C(c1ccccn1)c1ccccn1.[Zn+2] [[Zn(Dp4e4mT)2]],187
2,CCN(C)C([S-])=NN=C(c1ccccn1)c1ccccn1.[Cl-].[Cu+2] [[Cu(Dp4e4mT)Cl]],130
3,CCN(C)C([S-])=NN=C(c1ccccn1)c1ccccn1.[Cl-].[Pd+2] [[Pd(Dp4e4mT)Cl]],3
4,CCN(C)C([S-])=NN=C(c1ccccn1)c1ccccn1.CCN(C)C([S-])=NN=C(c1ccccn1)c1ccccn1.[Ni+2] [[Ni(Dp4e4mT)2]],250
5,CCN(C)C([S-])=NN=C(c1ccccn1)c1ccccn1.CCN(C)C([S-])=NN=C(c1ccccn1)c1ccccn1.[Fe+3] [[Fe(Dp4e4mT)2]^+],9

# Same assay, conditions: SK-N-MC, 24 h, 37 °C, MTT, mean ± SD (3 experiments)
row,IC50 [µM],SMILES
1,0.492 ± 0.034,CCN(C)C([S-])=NN=C(c1ccccn1)c1ccccn1.[Cl-].[Cu+2] [[Cu(Dp4e4mT)Cl]]
2,> 25,CCN(C)C([S-])=NN=C(c1ccccn1)c1ccccn1.[Cl-].[Pd+2] [[Pd(Dp4e4mT)Cl]]

# More lines, now with the values behind:
row,SMILES,IC50 [µM]
1,CCN(C)C([S-])=NN=C(c1ccccn1)c1ccccn1.CCN(C)C([S-])=NN=C(c1ccccn1)c1ccccn1.[Ni+2] [[Ni(Dp4e4mT)2]],> 25
2,CCN(C)C([S-])=NN=C(c1ccccn1)c1ccccn1.CCN(C)C([S-])=NN=C(c1ccccn1)c1ccccn1.[Fe+3] [[Fe(Dp4e4mT)2]^+],2.68 ± 0.071

# Same assay, conditions: SK-N-MC, 48 h, 37 °C, MTT, mean ± SD (3 experiments)
row,IC50 [µM],SMILES
1,0.031 ± 0.008,CCN(C)C([S-])=NN=C(c1ccccn1)c1ccccn1.[Cl-].[Cu+2] [[Cu(Dp4e4mT)Cl]]
2,0.661 ± 0.062,CCN(C)C([S-])=NN=C(c1ccccn1)c1ccccn1.[Cl-].[Pd+2] [[Pd(Dp4e4mT)Cl]]

# Second part, the compound before the results:
row,SMILES,IC50 [µM]
1,CCN(C)C([S-])=NN=C(c1ccccn1)c1ccccn1.CCN(C)C([S-])=NN=C(c1ccccn1)c1ccccn1.[Ni+2] [[Ni(Dp4e4mT)2]],0.075 ± 0.025
2,CCN(C)C([S-])=NN=C(c1ccccn1)c1ccccn1.CCN(C)C([S-])=NN=C(c1ccccn1)c1ccccn1.[Fe+3] [[Fe(Dp4e4mT)2]^+],1.53 ± 0.037

# Same assay, conditions: SK-N-MC, 72 h, 37 °C, MTT, mean ± SD (3 experiments)
row,IC50 [µM],SMILES
1,0.003 ± 0.001,CCN(C)C([S-])=NN=C(c1ccccn1)c1ccccn1.[Cl-].[Cu+2] [[Cu(Dp4e4mT)Cl]]
2,0.285 ± 0.121,CCN(C)C([S-])=NN=C(c1ccccn1)c1ccccn1.[Cl-].[Pd+2] [[Pd(Dp4e4mT)Cl]]

# More lines, now with the values behind:
row,SMILES,IC50 [µM]
1,CCN(C)C([S-])=NN=C(c1ccccn1)c1ccccn1.CCN(C)C([S-])=NN=C(c1ccccn1)c1ccccn1.[Ni+2] [[Ni(Dp4e4mT)2]],0.018 ± 0.006
2,CCN(C)C([S-])=NN=C(c1ccccn1)c1ccccn1.CCN(C)C([S-])=NN=C(c1ccccn1)c1ccccn1.[Fe+3] [[Fe(Dp4e4mT)2]^+],0.214 ± 0.005

# System: H2DCF
# Assay: Redox activity: H2DCF oxidation to DCF (cell-free, L-cysteine/H2O2)
# Format: biochemical
# Conditions: 10 μM complex + CuCl2, pH 7.4 and pH 5
# Method: Redox activity in cells was examined using an established in vitro method examining 2′,7′-dichlorodihydrofluorescein (H2DCF) oxidation to fluorescent 2′,7′-dichlorofluorescein (DCF) at cytosolic pH (pH 7.4 using HBSS buffer) relative to lysosomal pH (pH 5; acetate buffer; Fig. 5).[25,26,28,42,46] To these buffers containing the complexes, L-cysteine (100 μM) was added as a reducing agent, followed by H2DCF (5 μM). Then, hydrogen peroxide (H2O2; 100 μM) was added to initiate hydroxyl radical generation. Both [Cu(DpC)Cl2] and [Cu(DpC)2] were used as positive controls due to their documented redox activity.[28,42] In contrast, the ligand, DpC, was implemented as a negative control, as it is redox inert.[28,42] As an additional control, the established Cu chelator, tetrathiomolybdate (TM), was utilized to remove Cu from the thiosemicarbazone complexes to indicate its role in their redox activity.[27,28,42] Additionally, UV-vis spectroscopy (300–700 nm) of the same solution for each complex was also performed to understand both the oxidation of H2DCF and the formation of fluorescent DCF upon excitation at 503 nm (Fig. S20A–F and S21A–F ^†). […]
# ROS Generation Analysis with H 2DCF-DA
# The generation of reactive oxygen species (ROS) was assessed by examining the oxidation of H2DCF.2, 8, 13, 14 Solutions containing CuCl2, TM, DpC, Dp4e4mT, [Fe(DpC)2]+, [Cu(DpC)Cl2], [Cu(DpC)2] and the Dp4e4mT complexes were prepared at a concentration of 10 µM in either HBSS (pH 7.4) or 150 mM acetate buffer (pH 5) to simulate the conditions of the cytosol and lysosome, respectively.2, 8, 14, 15 The H2DCF was prepared by deacetylation of DCFH-DA (Sigma-Aldrich) through alkaline hydrolysis using NaOH. 16
# In these prepared solutions, L-cysteine (100 µM) was added as a reducing agent and then H2DCF (5 µM) added. The initiation of hydroxyl radical generation was achieved by the addition of hydrogen peroxide (H2O2; 100 µM). As a comparative benchmark, HBSS or acetate buffer containing L-cysteine, H2DCF, and H2O2, but lacking ligands or metal complexes, was employed as a control. Fluorescence measurements were carried out using a CLARIOstar Plus microplate reader (BMG LABTECH, Australia) with an excitation wavelength of 485 nm and an emission wavelength of 530 nm. 8, 14
row,SMILES,DCF fluorescence (H2DCF oxidation) after addition of CuCl2
1,CCN(C)C([S-])=NN=C(c1ccccn1)c1ccccn1.CCN(C)C([S-])=NN=C(c1ccccn1)c1ccccn1.[Zn+2] [[Zn(Dp4e4mT)2]],markedly and significantly (p < 0.0001–0.001) increased DCF fluorescence
2,CCN(C)C([S-])=NN=C(c1ccccn1)c1ccccn1.[Cl-].[Pd+2] [[Pd(Dp4e4mT)Cl]],approximately half
3,CCN(C)C([S-])=NN=C(c1ccccn1)c1ccccn1.CCN(C)C([S-])=NN=C(c1ccccn1)c1ccccn1.[Ni+2] [[Ni(Dp4e4mT)2]],markedly and significantly (p < 0.0001–0.001) increased DCF fluorescence
4,CCN(C)C([S-])=NN=C(c1ccccn1)c1ccccn1.CCN(C)C([S-])=NN=C(c1ccccn1)c1ccccn1.[Fe+3] [[Fe(Dp4e4mT)2]^+],markedly and significantly (p < 0.0001–0.001) increased DCF fluorescence

# Same assay, conditions: 10 μM, pH 7.4 and pH 5, no added CuCl2
row,SMILES,DCF fluorescence (H2DCF oxidation) of agent alone
1,CCN(C)C([S-])=NN=C(c1ccccn1)c1ccccn1.[Cl-].[Cu+2] [[Cu(Dp4e4mT)Cl]],greatest efficacy at increasing DCF fluorescence
2,CCN(C)C([S-])=NN=C(c1ccccn1)c1ccccn1.CCN(C)C([S-])=NN=C(c1ccccn1)c1ccccn1.[Fe+3] [[Fe(Dp4e4mT)2]^+],markedly and significantly (p < 0.0001) less redox active

# System: not listed separately
# Assay: Transmetallation kinetics with Cu(OAc)2 in aqueous solution pH 7.4 / pH 5 (UV-vis)
# Format: physicochemical
# Conditions: 10-fold excess of Cu(OAc)2, water pH 5, 25 °C
# Method: Transmetallation studies were also conducted using UV-vis spectroscopy in aqueous solutions at pH 7.4 (phosphate buffer; 100 mM) and pH 5 (acetate buffer; 150 mM) to simulate physiological conditions, as thiosemicarbazones of this class transverse the cytosol (pH 7.4) to target lysosomes (pH 5), where transmetallation occurs.[25,26,28] Studies in aqueous solution were important to compare the results performed in DMSO above so as to interpret the biological studies and particularly the redox assays below where the same pH values were employed.
# Transmetallation of the complexes of Dp4e4mT with Cu(OAc)2 in water was possible as it is soluble in aqueous solution at pH 7.4 and 5, while FeCl3 precipitates under these conditions and cannot be assessed. […] The UV-vis spectra of all complexes in water (ca. 10 μM solutions) are compared in Fig. S17 ^† and mirror the spectra in DMSO (see Experimental section). The spectra of [Fe(Dp4e4mT)2]^+, [Co(Dp4e4mT)2]^+, and [Pd(Dp4e4mT)Cl] are similar, and display an asymmetric maximum around 393 nm with a prominent shoulder (∼450 nm). The [Ni(Dp4e4mT)2] spectrum is similarly asymmetric, although the peak intensities are reversed relative to the Fe(III), Co(III), and Pd(II) spectra (Fig. S17 ^†). […] The spectrum of [Zn(Dp4e4mT)2] is unique in this group, with a symmetrical peak at ∼400 nm.
# Table S2. Observed pseudo first order rate constants (k obs, s−1) for reactions of each Dp4e4mT complex with a 10-fold excess of Cu(OAc) 2 or FeCl 3 in DMSO or water (pH 7.4 or 5.0) at 25 °C. […]
# [Co(Dp4e4mT)2]+ No reaction No reaction No reaction No reaction […]
# a Reaction could not be deciphered by UV-Vis spectroscopy; bchlorido ligand hydrolysis
row,SMILES,"Observed pseudo first order rate constant kobs, Cu(OAc)2 in water pH 5 (only or first step) [s−1]"
1,CCN(C)C([S-])=NN=C(c1ccccn1)c1ccccn1.CCN(C)C([S-])=NN=C(c1ccccn1)c1ccccn1.[Zn+2] [[Zn(Dp4e4mT)2]],> 0.1

# Same assay, conditions: 10-fold excess of Cu(OAc)2, water pH 7.4, 25 °C
row,SMILES,"Observed pseudo first order rate constant kobs, Cu(OAc)2 in water pH 7.4"
1,CCN(C)C([S-])=NN=C(c1ccccn1)c1ccccn1.CCN(C)C([S-])=NN=C(c1ccccn1)c1ccccn1.[Zn+2] [[Zn(Dp4e4mT)2]],> 0.1 s−1
2,CCN(C)C([S-])=NN=C(c1ccccn1)c1ccccn1.CCN(C)C([S-])=NN=C(c1ccccn1)c1ccccn1.[Ni+2] [[Ni(Dp4e4mT)2]],No reaction

# Same assay, conditions: aqueous pH 5, first of two consecutive first order reactions
row,"t½, faster step with Cu(OAc)2 at pH 5 [min]",SMILES
1,~4,CCN(C)C([S-])=NN=C(c1ccccn1)c1ccccn1.CCN(C)C([S-])=NN=C(c1ccccn1)c1ccccn1.[Ni+2] [[Ni(Dp4e4mT)2]]

# Same assay, conditions: aqueous, pH 7.4 and 5.0
"t½, decay of the 500 nm shoulder after Cu(OAc)2 [min]",SMILES,"kobs, decay of the 500 nm shoulder after Cu(OAc)2 [s⁻¹]"
~15,CCN(C)C([S-])=NN=C(c1ccccn1)c1ccccn1.CCN(C)C([S-])=NN=C(c1ccccn1)c1ccccn1.[Fe+3] [[Fe(Dp4e4mT)2]^+],0.00073
